Measured values: ChEMBL document CHEMBL5728630, “Aryl, heteroaryl, and heterocyclic pharmaceutical compounds for treatment of medical disorders” (2021)
pIC50: −log10 of the molar value.

Molecular target: Complement factor D (Homo sapiens, UniProt P00746)
Assay: Factor D Assay: Human Factor D (purified from human serum, Complement Technology, Inc.) at 80 nM final concentration is incubated with test compound at various concentrations for 5 min at room temperature in 50 mM Tris, 1M NaCl, pH 7.5. A synthetic substrate Z-L-Lys-SBz and DTNB (Ellman's reagent) are added to final concentrations of 100 μM each. Absorbance at 405 nm (A405) is recorded at 30 second intervals for 30 min using a microplate spectrophotometer. IC50 values are calculated by nonlinear regression of complement Factor D reaction rates as a function of test compound concentration.

Chain of Complement factor D (P00746 whole entry): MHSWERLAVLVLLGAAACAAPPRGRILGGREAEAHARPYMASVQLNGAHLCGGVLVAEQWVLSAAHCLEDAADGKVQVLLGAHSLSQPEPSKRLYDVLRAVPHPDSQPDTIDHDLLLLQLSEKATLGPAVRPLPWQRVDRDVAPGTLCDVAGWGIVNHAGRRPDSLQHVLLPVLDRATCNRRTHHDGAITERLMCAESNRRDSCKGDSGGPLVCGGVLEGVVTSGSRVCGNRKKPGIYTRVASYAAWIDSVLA

SMILES | pIC50
CC(=O)c1nn(CC(=O)N2[C@H](C(=O)NCCc3ccccc3)C[C@@]3(C)C[C@@H]23)c2c(C)cc(-c3cnc(C)nc3)cc12 | > 6.00
Cc1ncc(-c2ccc3c(c2)c(C(=O)NC2CC2)nn3CC(=O)N2[C@H](C(=O)Nc3nc(Br)ccc3C)C[C@@]3(C)C[C@@H]23)cn1 | > 6.00
Cc1ncc(-c2ccc3c(c2)c(C(=O)NC(C)C2CC2)nn3CC(=O)N2[C@H](C(=O)Nc3nc(Br)ccc3C)C[C@@]3(C)C[C@@H]23)cn1 (some centres not stated) | > 6.00
C#CCNC(=O)c1nn(CC(=O)N2[C@H](C(=O)Nc3nc(Br)ccc3C)C[C@@]3(C)C[C@@H]23)c2ccc(-c3cnc(C)nc3)cc12 | > 6.00
COc1ccc(CNC(=O)[C@@H]2C[C@@]3(C)C[C@H]3N2C(=O)Cn2nc(C(C)=O)c3cc(-c4cnc(C)nc4)cc(C)c32)cc1 | > 6.00
CC(=O)c1nn(CC(=O)N2[C@H](C(=O)Nc3nc(OC(F)(F)F)ccc3C)C[C@@]3(C)C[C@@H]23)c2c(C)nc(-c3cnc(C)nc3)cc12 | > 6.00
CC(=O)c1nn(CC(=O)N2[C@H](C(=O)NCCCN)C[C@@]3(C)C[C@@H]23)c2ccc(-c3cnc(C)nc3)cc12 | < 5.00
CC(=O)c1nn(CC(=O)N2[C@H](C(=O)Nc3nc(Br)ccc3C(O)CO)C[C@@]3(C)C[C@@H]23)c2cnc(-c3cnc(C)nc3)cc12 (some centres not stated) | > 6.00
COc1cccc(CNC(=O)[C@@H]2C[C@@]3(C)C[C@H]3N2C(=O)Cn2nc(C(C)=O)c3cc(-c4cnc(C)nc4)cc(C)c32)c1 | > 6.00
COc1ccccc1CNC(=O)[C@@H]1C[C@@]2(C)C[C@H]2N1C(=O)Cn1nc(C(C)=O)c2cc(-c3cnc(C)nc3)cc(C)c21 | > 6.00
CC(=O)c1nn(CC(=O)N2[C@H](C(=O)Nc3nc(Br)ccc3C)C[C@@]3(C)C[C@@H]23)c2ccc(-c3cnc(CN4CCCC(F)(F)C4)nc3)cc12 | > 6.00
CC(=O)c1nn(CC(=O)N2[C@H](C(=O)Nc3nc(Br)ccc3CN3CCC(S(C)(=O)=O)CC3)C[C@@]3(C)C[C@@H]23)c2c(C)cc(-c3cnc(C)nc3)cc12 | > 6.00
CC(=O)c1nn(CC(=O)N2[C@@H](C(=O)Nc3nc(Br)ccc3C)C[C@@]3(CC(C)C)C[C@@H]23)c2cnc(-c3cnc(C)nc3)cc12 | < 5.00
CC(=O)c1nn(CC(=O)N2[C@H](C(=O)Nc3nc(Br)ccc3C)C[C@@]3(CN(C)C)C[C@@H]23)c2c(C)nc(-c3cnc(C)nc3)cc12 | > 6.00
CC(=O)c1nn(CC(=O)N2[C@H](C(=O)Nc3nc(Br)ccc3C)C[C@@]3(CC(F)F)C[C@@H]23)c2cnc(-c3cnc(C)nc3)cc12 | > 6.00
CC(=O)c1nn(CC(=O)N2[C@H](C(=O)NCCCc3ccccc3)C[C@@]3(C)C[C@@H]23)c2c(C)cc(-c3cnc(C)nc3)cc12 | > 6.00
Cc1ncc(-c2ccc3c(c2)c(C(=O)NC(C)(C)C)nn3CC(=O)N2[C@H](C(=O)Nc3nc(Br)ccc3C)C[C@@]3(C)C[C@@H]23)cn1 | < 5.00
C=Cc1nn(CC(=O)N2[C@H](C(=O)Nc3nc(Br)ccc3C)C[C@@]3(C)C[C@@H]23)c2cnc(-c3cnc(C)nc3)cc12 | > 6.00
Cc1ncc(-c2ccc3c(c2)c(C(=O)NC(C)(C)C2CC2)nn3CC(=O)N2[C@H](C(=O)Nc3nc(Br)ccc3C)C[C@@]3(C)C[C@@H]23)cn1 | < 5.00
CC(=O)c1nn(CC(=O)N2[C@H](C(=O)Nc3nc(Br)ccc3C)C[C@@]3(CN4CCC4)C[C@@H]23)c2c(C)nc(-c3cnc(C)nc3)cc12 | > 6.00
CC(=O)c1nn(CC(=O)N2[C@H](C(=O)N[C@@H](C)c3ccccc3)C[C@@]3(C)C[C@@H]23)c2c(C)cc(-c3cnc(C)nc3)cc12 | > 6.00

SMILES | pIC50
CC(=O)c1nn(CC(=O)N2[C@H](C(=O)Nc3cncc(Br)n3)C[C@@]3(C)C[C@@H]23)c2c(C)nc(-c3cnc(C)nc3)cc12 | > 6.00
CC(=O)C[C@@]12C[C@@H](C(=O)Nc3nc(Br)ccc3C)N(C(=O)Cn3nc(C(C)=O)c4cc(-c5cnc(C)nc5)ncc43)[C@@H]1C2 | > 6.00
CCCCNC(=O)[C@@H]1C[C@@]2(C)C[C@H]2N1C(=O)Cn1nc(C(C)=O)c2cc(-c3cnc(C)nc3)cc(C)c21 | > 6.00
CC(=O)c1nn(CC(=O)N2[C@H](C(=O)Nc3nc(Br)ccc3C)C[C@@]3(CNC4=NCCO4)C[C@@H]23)c2cnc(-c3cnc(C)nc3)cc12 | > 6.00
CCCCCNC(=O)[C@@H]1C[C@@]2(C)C[C@H]2N1C(=O)Cn1nc(C(C)=O)c2cc(-c3cnc(C)nc3)cc(C)c21 | > 6.00
CC(=O)c1nn(CC(=O)N2[C@H](C(=O)NCc3ccccc3)C[C@@]3(C)C[C@@H]23)c2ccc(-c3cnc(C)nc3)cc12 | > 6.00
CCCCCCNC(=O)[C@@H]1C[C@@]2(C)C[C@H]2N1C(=O)Cn1nc(C(C)=O)c2cc(-c3cnc(C)nc3)cc(C)c21 | > 6.00
CC(=O)c1nn(CC(=O)N2[C@H](C(=O)Nc3nc(Br)ccc3C)C[C@@]3(CN4CCCC4)C[C@@H]23)c2c(C)nc(-c3cnc(C)nc3)cc12 | > 6.00
CC(=O)c1nn(CC(=O)N2[C@H](C(=O)Nc3cc(C)cc(Br)n3)C[C@@]3(C)C[C@@H]23)c2c(C)nc(-c3cnc(C)nc3)cc12 | > 6.00
CC(=O)c1nn(CC(=O)N2[C@H](C(=O)NCc3ccccc3)C[C@@]3(C)C[C@@H]23)c2c(C)cc(-c3cnc(C)nc3)cc12 | > 6.00
C=C[C@@]12C[C@@H](C(=O)Nc3nc(Br)ccc3Cc3nnc(CCCC)o3)N(C(=O)Cn3nc(C(C)=O)c4cc(-c5cnc(C)nc5)ncc43)[C@@H]1C2 | > 6.00
CC(=O)c1nn(CC(=O)N2[C@H](C(=O)NCC(C)C)C[C@@]3(C)C[C@@H]23)c2c(C)cc(-c3cnc(C)nc3)cc12 | > 6.00
CCCCCNC(=O)[C@@H]1C[C@@]2(C)C[C@H]2N1C(=O)Cn1nc(C(C)=O)c2cc(-c3cnc(C)nc3)ccc21 | > 6.00
CCCNC(=O)[C@@H]1C[C@@]2(C)C[C@H]2N1C(=O)Cn1nc(C(C)=O)c2cc(-c3cnc(C)nc3)cc(C)c21 | > 6.00
CC(=O)c1nn(CC(=O)N2[C@H](C(=O)NCc3ccc(F)cc3)C[C@@]3(C)C[C@@H]23)c2c(C)cc(-c3cnc(C)nc3)cc12 | > 6.00
CC(=O)c1nn(CC(=O)N2[C@H](C(=O)Nc3nc(Br)ccc3C3COC(C)(C)O3)C[C@@]3(C)C[C@@H]23)c2cnc(-c3cnc(C)nc3)cc12 (some centres not stated) | > 6.00
Cc1ncc(-c2cc(C)c3c(c2)c(I)nn3CC(=O)N2[C@H](C(=O)Nc3nc(Br)ccc3C)C[C@@]3(C)C[C@@H]23)cn1 | > 6.00
CC(=O)c1cn(CC(=O)N2[C@H](C(=O)Nc3nc(Br)ccc3C)C[C@@]3(C)C[C@@H]23)c2cnc(-c3cnc(C)nc3)cc12 | > 6.00
CC(=O)c1nn(CC(=O)N2[C@H](C(=O)Nc3nc(Br)ccc3CN3CCn4c(nnc4C(F)(F)F)C3)C[C@@]3(C)C[C@@H]23)c2cnc(-c3cnc(C)nc3)cc12 | > 6.00
CC(=O)c1nn(CC(=O)N2[C@H](C(=O)Nc3nc(C(F)(F)F)ccc3C)C[C@@]3(C)C[C@@H]23)c2cnc(-c3cnc(C)nc3)cc12 | > 6.00
CC(=O)c1nn(CC(=O)N2[C@H](C(=O)Nc3cc(F)cc(Br)n3)C[C@@]3(C)C[C@@H]23)c2c(C)nc(-c3cnc(C)nc3)cc12 | > 6.00

SMILES | pIC50
CC(=O)c1nn(CC(=O)N2[C@H](C(=O)NCc3cccc(F)c3)C[C@@]3(C)C[C@@H]23)c2c(C)cc(-c3cnc(C)nc3)cc12 | > 6.00
CNC(=O)c1nn(CC(=O)N2[C@H](C(=O)Nc3nc(Br)ccc3C)C[C@@]3(C)C[C@@H]23)c2ccc(-c3cnc(C)nc3)cc12 | > 6.00
CC(=O)c1nn(CC(=O)N2[C@H](C(=O)NCC3CC3)C[C@@]3(C)C[C@@H]23)c2c(C)cc(-c3cnc(C)nc3)cc12 | > 6.00
CC(=O)c1nn(CC(=O)N2[C@H](C(=O)Nc3nc(Br)ccc3C3COC(=O)O3)C[C@@]3(C)C[C@@H]23)c2cnc(-c3cnc(C)nc3)cc12 (some centres not stated) | > 6.00
C=CCNC(=O)c1nn(CC(=O)N2[C@H](C(=O)Nc3nc(Br)ccc3C)C[C@@]3(C)C[C@@H]23)c2ccc(-c3cnc(C)nc3)cc12 | > 6.00
C#CC(C)(C)NC(=O)c1nn(CC(=O)N2[C@H](C(=O)Nc3nc(Br)ccc3C)C[C@@]3(C)C[C@@H]23)c2ccc(-c3cnc(C)nc3)cc12 | < 5.00
CCNC(=O)[C@@H]1C[C@@]2(C)C[C@H]2N1C(=O)Cn1nc(C(C)=O)c2cc(-c3cnc(C)nc3)cc(C)c21 | > 6.00
CCCNC(=O)[C@@H]1C[C@@]2(C)C[C@H]2N1C(=O)Cn1nc(C(C)=O)c2cc(-c3cnc(C)nc3)ccc21 | > 6.00
CC(=O)c1nn(CC(=O)N2[C@H](C(=O)Nc3nc(Br)ccc3C)C[C@@]3(CN4CC(C)(C)C4)C[C@@H]23)c2c(C)nc(-c3cnc(C)nc3)cc12 | > 6.00
CC(=O)c1nn(CC(=O)N2[C@H](C(=O)Nc3nc(Br)ccc3C)C[C@@]3(CC(O)CO)C[C@@H]23)c2cnc(-c3cnc(C)nc3)cc12 (some centres not stated) | > 6.00
CC(=O)c1nn(CC(=O)N2[C@H](C(=O)Nc3nc(C(F)(F)F)ccc3C)C[C@@]3(C)C[C@@H]23)c2c(C)nc(-c3cnc(C)nc3)cc12 | > 6.00
CC(=O)c1nn(CC(=O)N2[C@H](C(=O)Nc3cncc(Br)n3)C[C@@]3(C)C[C@@H]23)c2cnc(-c3cnc(C)nc3)cc12 | > 6.00
CCC[C@@]12C[C@@H](C(=O)Nc3nc(Br)ccc3C)N(C(=O)Cn3nc(C(C)=O)c4cc(-c5cnc(C)nc5)ncc43)[C@@H]1C2 | > 6.00
C#CC(C)NC(=O)c1nn(CC(=O)N2[C@H](C(=O)Nc3nc(Br)ccc3C)C[C@@]3(C)C[C@@H]23)c2ccc(-c3cnc(C)nc3)cc12 (some centres not stated) | > 6.00
CC(=O)c1nn(CC(=O)N2[C@H](C(=O)NCc3ccccc3F)C[C@@]3(C)C[C@@H]23)c2c(C)cc(-c3cnc(C)nc3)cc12 | > 6.00
CC(=O)c1nn(CC(=O)N2[C@H](C(=O)Nc3nc(Br)ccc3F)C[C@@]3(C)C[C@@H]23)c2cnc(-c3cnc(C)nc3)cc12 | > 6.00
Cc1ncc(-c2cc3c(C(C)O)nn(CC(=O)N4[C@H](C(=O)Nc5nc(Br)c(F)cc5C)C[C@@]5(C)C[C@@H]45)c3c(C)n2)cn1 (some centres not stated) | > 6.00
CC(=O)c1nn(CC(=O)N2[C@H](C(=O)N[C@H](C)c3ccccc3)C[C@@]3(C)C[C@@H]23)c2c(C)cc(-c3cnc(C)nc3)cc12 | > 6.00
CC(=O)c1nn(CC(=O)N2[C@H](C(=O)NCC(C)(C)C)C[C@@]3(C)C[C@@H]23)c2ccc(-c3cnc(C)nc3)cc12 | > 6.00
Cc1ncc(-c2cc(C)c3c(c2)c(C(=O)N2CC4(CCC4)C2)nn3CC(=O)N2[C@H](C(=O)Nc3nc(Br)ccc3C)C[C@@]3(C)C[C@@H]23)cn1 | < 5.00
